Data taken from the supplement of paper PMC10307832.

How the values were obtained:
Experiment in all cases: relative viability (nuclei count vs DMSO), 5 days (fraction); higher = more cells survive
[1] = compound: C1/C(=C\C2=CC=CS2)/C(=O)/C(=C/C3=CC=CS3)/C1 + Nc1nc2[nH]cc(CCc3ccc(C(=O)N[C@@H](CCC(=O)O)C(=O)O)cc3)c2c(=O)[nH]1 [Pemetrexed] (partner 0.2 µM)
Method in brief: (§1)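 Lung cancer cell lines in 1536-well plates got either a single drug or a fixed anchor-drug dose together with five library-drug doses (not always all listed) in √10 steps, by pin tool, on the day after seeding. Nuclei were counted after 5 days, and relative viability is the treated-to-vehicle ratio of nuclei counts. Values are medians of duplicate plates.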

[2] = compound: C1=CC(=CC=C1C2=CC(=C(S2)NC(=O)N)C(=O)N)F [TPCA-1] + CC(C)C[C@H](NC(=O)[C@H](Cc1ccccc1)NC(=O)c1cnccn1)B(O)O [Bortezomib] (partner 0.002 µM)
Method in brief: as §1

[3] = compound: C1=CC(=CC=C1C2=CC(=C(S2)NC(=O)N)C(=O)N)F [TPCA-1] + CCNC(=O)c1noc(-c2cc(C(C)C)c(O)cc2O)c1-c1ccc(CN2CCOCC2)cc1 [Luminespib] (partner 0.01 µM)
Method in brief: as §1

[4] = compound: C[C@]12O[C@H](C[C@]1(O)CO)n1c3ccccc3c3c4c(c5c6ccccc6n2c5c31)CNC4=O [Lestaurtinib] + CCNC(=O)c1noc(-c2cc(C(C)C)c(O)cc2O)c1-c1ccc(CN2CCOCC2)cc1 [Luminespib] (partner 0.01 µM)
Method in brief: as §1

Cell Line	relative viability ([1]; first compound 0.2 µM)	relative viability ([1]; first compound 0.6325 µM)	relative viability ([1]; first compound 2 µM)	relative viability ([1]; first compound 6.325 µM)	relative viability ([1]; first compound 20 µM)	relative viability ([2]; first compound 0.04 µM)	relative viability ([2]; first compound 0.1265 µM)	relative viability ([2]; first compound 0.4 µM)	relative viability ([2]; first compound 1.265 µM)	relative viability ([2]; first compound 4 µM)	relative viability ([3]; first compound 0.04 µM)	relative viability ([3]; first compound 0.1265 µM)	relative viability ([3]; first compound 0.4 µM)	relative viability ([3]; first compound 1.265 µM)	relative viability ([3]; first compound 4 µM)	relative viability ([4]; first compound 0.005 µM)	relative viability ([4]; first compound 0.01581 µM)	relative viability ([4]; first compound 0.05 µM)	relative viability ([4]; first compound 0.1581 µM)	relative viability ([4]; first compound 0.5 µM)
201T	0.351	0.367	0.333	0.313	0.33	1.12	1.1	1.19	1.12	1.12	1.1	1.07	1.07	1.05	0.967	1.16	1.07	1.14	1.09	0.357
A-427	1.02	1.04	0.89	0.943	0.941	1.05	0.981	1.08	0.976	1.07	1.01	0.873	0.935	0.902	0.637	1.03	0.797	0.649	0.298	0.185
ABC-1						0.369	0.225	0.291	0.297	0.293	1.24	0.477	0.34	0.665	0.47		0.323	0.445	0.331	0.178
Calu-6						1.1	0.933	1.09	0.873	0.658										
EBC-1						0.521	0.617	0.618	0.59	0.479										
HCC-78	0.923	0.817	0.862	0.921	0.862	0.437	0.439	0.531	0.27	0.281										
HCC-366	0.168	0.169	0.156	0.116	0.172	1.07	0.94	1.13	0.92	0.647										
IA-LM						0.834	0.804	0.847	0.781	0.559										
LK-2	0.273		0.354	0.282	0.276						0.216	0.188	0.216	0.175	0.167	0.202	0.19	0.17	0.208	0.203
NCI-H358	0.213	0.207	0.171	0.191	0.177						0.286	0.366	0.279	0.266	0.125	0.446	0.325	0.378	0.149	0.121
NCI-H522	1.04	0.916	1.17	0.988	0.957						1.13	0.946	1.22	1.15	0.84	1.3	1.01	1.08	1.03	0.699
NCI-H727						1.07	0.707	0.923	0.674	0.696	0.531	0.453	0.439	0.487	0.432	0.478	0.401	0.427	0.284	0.387
NCI-H1299						1.02	0.961	1.01	0.981	1.07										
NCI-H1395	0.889	0.912	1.08	0.819	0.971						0.762	0.695	0.647	0.709	0.644	0.654	0.668	0.616	0.472	0.374
NCI-H1623											0.601	0.555	0.54	0.433	0.426	0.6	0.617	0.406	0.352	0.444
NCI-H1648	0.859	0.718	0.79	0.609	0.569															
NCI-H1703						0.299	0.385	0.394	0.41	0.367										
NCI-H1793	0.973	0.711	1.03	0.796	0.914						0.173		0.142	0.142	0.134	0.193	0.249	0.156	0.154	0.161
NCI-H1944	0.619	0.591	0.603		0.572						0.872	0.663	0.71	0.626	0.513	0.716	0.784	0.773	0.54	0.302
NCI-H2170	0.283	0.246	0.259	0.245	0.256						0.968	0.703	0.535	0.681	0.277	0.501	0.519	0.593	0.383	0.266
NCI-H2342	0.781	0.764	0.838	0.718	0.747						0.921	0.66	0.819	0.754	0.694	0.779	0.624	0.651	0.738	0.7
SK-MES-1	0.972	0.959	0.949	0.752	0.988						0.876	0.763	0.677	0.33	0.365	0.714	0.619	0.391	0.229	0.261
SW 900	0.481	0.525	0.49	0.399	0.482						0.179	0.176	0.212	0.201	0.176	0.172	0.146	0.151	0.159	0.178
